Reference: PMC8957246, “Synthesis and diverse biological activity profile of triethylammonium isatin-3-hydrazones” (ADMET & DMPK, 2022)
Where two headings read alike, the source gives them in different places.

Columns and labels:
Assay type in all cases: cell-based
[1] = system: Staphylococcus aureus ATCC 6538P FDA 209P; assay: Antimicrobial activity, serial dilution (MIC/MBC), Sa
[2] = system: Phytophthora cactorum VKM F-985; assay: Fungicidal activity, radial growth inhibition, P. cactorum; details: for EC50: Phytophthora cactorum, 168 h, day 7, EC50 = 50C/I, read-out: EC50, μg/mL at day 7
Description: Plant pathogenic bacterial strains Micrococcus luteus B-109, Pectobacterium atrosepticum 1043, Pectobacterium carotovorum subsp. carotovorum MI, Pseudomonas fluorescens EL-2.1, and Xanthomonas campestris B-610 and fungal strain Fusarium oxysporum IBPPM 543 were obtained from the specialized scientific culture collection of IBPPM RAS (WFCC no. 975, WDCM no. 1021) (CM IBPPM). Pathogenic fungus Phytophthora cactorum VKM F-985 provided by the All-Russian Collection of Microorganisms (VKM) and deposited at A.E. Favorsky Irkutsk Institute of Chemistry, SB RAS, was also used as test organism. Bacteria M. luteus, P. carotovorum subsp. carotovorum, P. atrosepticum, and Ps. fluorescens were grown in meat-peptone medium (BP), and X. campestris was grown in the medium with glucose, yeast extract, and calcium carbonate (GYCa). Solid media contained Bacto agar (18 g/L); pH was adjusted to 7.2-7.4. All bacterial cultures were grown at 28°C. The mycelial cultures of F. oxysporum and P. cactorum were grown on a glucose-peptone-yeast (GPY) nutrient medium at 27 °C. For inoculum preparation, both fungal strains were initially grown on the agar GPY in Petri dishes and then transferred into the seed medium by punching out 5 mm of the agar plate culture with a self-designed cutter.
For the fungicidal activity analysis, radial growth (colony diameters) of the fungi on a solid medium in the absence and in the presence of the compounds 3a,c-g solutions at various concentrations were compared. The method consisted of the following: sterile, melted and then cooled to about 60°C GPY agar medium (20.0 ml) was mixed with the precisely measured volumes of the solutions under question, and poured into a sterile Petri dish (90 mm i.d.). After solidification of GPY agar, the media were inoculated by the fungus using 10-day-old cultures of F. oxysporum or P. cactorum. The inoculation was done by transferring a 5-mm (i.d.) GPY-agar block covered with mycelium to the center of the Petri dish followed by incubation in a thermostat at 27°C. The fungicidal effect was scored by the size of mycelium colony on a Petri dish compared to the control without fungicidal admixtures to GPY agar. Each treatment was performed in at least four replicates in two independent experiments. The observation period ended when the control Petri dish was filled with mycelium (usually after 12 days). The inhibition of the phytopathogen colony growth by the compounds 3a,c-g or fludioxonil solutions was calculated as a percentage by which the mycelium radial propagation was decreased compared to the unaffected control, the latter was taken as 100 % of growth (or zero percent of inhibition). The EC50 value was calculated as the compound concentration at which the radial growth of the fungus colony was decreased by 50 % relative to the non-fungicidal control, according to the formula EC50 = 50C/I based on the approach developed e.g., in [34, 35].
The solutions of tested compounds were prepared with a concentration of 2 mmol/l (stock solution). For comparison, test compounds were also commonly applied disinfecting agents and antibiotics.

[3] = system: Enterococcus faecalis ATCC 29212; assay: Antimicrobial activity, serial dilution (MIC/MBC), Ef; details: ATCC29212
[4] = Staphylococcus aureus, read-out: MBC (converted)

With `CC[N+](CC)(CC)CC(=O)N/N=C1\C(=O)N(Cc2cc(C(C)(C)C)c(O)c(C(C)(C)C)c2)c2c(Br)cc(Cl)cc21` [Compound 3g, 2-(2-(1-(3,5-Di-tert-butyl-4-hydroxybenzyl)-5-chloro-7-bromo-2-oxoindolin-3-ylidene)hydrazinyl)-N,N,N-triethyl-2-oxoethanammonium bromide] the MIC ([1]; Staphylococcus aureus) was 11 ± 0.9 µM, the MBC [1, 4] was 21.9 µM and the “Inhibition value, I (%)” value ([2]; C 1.43 μg/mL, age of the fungus 3 days) was 30%. The “Inhibition value, I (%)” value ([2]; C 1.43 μg/mL, age of the fungus 5 days) was 29%, the “Inhibition value, I (%)” value ([2]; C 1.43 μg/mL, age of the fungus 7 days) was 15% and the “Inhibition value, I (%)” value ([2]; C 1.43 μg/mL, age of the fungus 9 days) was 1%. For the same compound, the “Inhibition value, I (%)” value ([2]; C 1.43 μg/mL, age of the fungus 12 days) was 0%, the “Inhibition value, I (%)” value ([2]; C 3.58 μg/mL, age of the fungus 3 days) was 38% and the “Inhibition value, I (%)” value ([2]; C 3.58 μg/mL, age of the fungus 5 days) was 29%. For the same compound, the “Inhibition value, I (%)” value ([2]; C 3.58 μg/mL, age of the fungus 7 days) was 22%, the “Inhibition value, I (%)” value ([2]; C 3.58 μg/mL, age of the fungus 9 days) was 5% and the “Inhibition value, I (%)” value ([2]; C 3.58 μg/mL, age of the fungus 12 days) was 0%. For the same compound, the “Inhibition value, I (%)” value ([2]; C 7.15 μg/mL, age of the fungus 3 days) was 40%, the “Inhibition value, I (%)” value ([2]; C 7.15 μg/mL, age of the fungus 5 days) was 33% and the “Inhibition value, I (%)” value ([2]; C 7.15 μg/mL, age of the fungus 7 days) was 26%. For the same compound, the “Inhibition value, I (%)” value ([2]; C 7.15 μg/mL, age of the fungus 9 days) was 14%, the “Inhibition value, I (%)” value ([2]; C 7.15 μg/mL, age of the fungus 12 days) was 11% and the “Inhibition value, I (%)” value ([2]; C 10.73 μg/mL, age of the fungus 3 days) was 48%. The “Inhibition value, I (%)” value ([2]; C 10.73 μg/mL, age of the fungus 5 days) was 43%, the “Inhibition value, I (%)” value ([2]; C 10.73 μg/mL, age of the fungus 7 days) was 41% and the “Inhibition value, I (%)” value ([2]; C 10.73 μg/mL, age of the fungus 9 days) was 31%. For the same compound, the “Inhibition value, I (%)” value ([2]; C 10.73 μg/mL, age of the fungus 12 days) was 26%, the “Inhibition value, I (%)” value ([2]; C 14.30 μg/mL, age of the fungus 3 days) was 51% and the “Inhibition value, I (%)” value ([2]; C 14.30 μg/mL, age of the fungus 5 days) was 48%. The “Inhibition value, I (%)” value ([2]; C 14.30 μg/mL, age of the fungus 7 days) was 46%, the “Inhibition value, I (%)” value ([2]; C 14.30 μg/mL, age of the fungus 9 days) was 41% and the “Inhibition value, I (%)” value ([2]; C 14.30 μg/mL, age of the fungus 12 days) was 28%. The EC50 [2] was 4.77 µg/mL, the MBC [3] was greater than 500 µM and the MIC [3] was greater than 500 µM.
`CC[N+](CC)(CC)CC(=O)N/N=C1\C(=O)N(Cc2cc(C(C)(C)C)c(O)c(C(C)(C)C)c2)c2ccc([N+](=O)[O-])cc21` [Compound 3f, 2-(2-(1-(3,5-Di-tert-butyl-4-hydroxybenzyl)-5-nitro-2-oxoindolin-3-ylidene)hydrazinyl)-N,N,N-triethyl-2-oxoethanammonium bromide] was tested, and the MIC ([1]; Staphylococcus aureus) was 48.3 ± 3.9 µM, the MBC [1, 4] was 96.7 µM and the “Inhibition value, I (%)” value ([2]; C 1.29 μg/mL, age of the fungus 3 days) was 17%. For the same compound, the “Inhibition value, I (%)” value ([2]; C 1.29 μg/mL, age of the fungus 5 days) was 11%, the “Inhibition value, I (%)” value ([2]; C 1.29 μg/mL, age of the fungus 7 days) was 2% and the “Inhibition value, I (%)” value ([2]; C 1.29 μg/mL, age of the fungus 9 days) was 0%. For the same compound, the “Inhibition value, I (%)” value ([2]; C 1.29 μg/mL, age of the fungus 12 days) was 0%, the “Inhibition value, I (%)” value ([2]; C 3.24 μg/mL, age of the fungus 3 days) was 33% and the “Inhibition value, I (%)” value ([2]; C 3.24 μg/mL, age of the fungus 5 days) was 19%. The “Inhibition value, I (%)” value ([2]; C 3.24 μg/mL, age of the fungus 7 days) was 18%, the “Inhibition value, I (%)” value ([2]; C 3.24 μg/mL, age of the fungus 9 days) was 1% and the “Inhibition value, I (%)” value ([2]; C 3.24 μg/mL, age of the fungus 12 days) was 0%. The “Inhibition value, I (%)” value ([2]; C 6.47 μg/mL, age of the fungus 3 days) was 35%, the “Inhibition value, I (%)” value ([2]; C 6.47 μg/mL, age of the fungus 5 days) was 23% and the “Inhibition value, I (%)” value ([2]; C 6.47 μg/mL, age of the fungus 7 days) was 20%. For the same compound, the “Inhibition value, I (%)” value ([2]; C 6.47 μg/mL, age of the fungus 9 days) was 8%, the “Inhibition value, I (%)” value ([2]; C 6.47 μg/mL, age of the fungus 12 days) was 1% and the “Inhibition value, I (%)” value ([2]; C 9.71 μg/mL, age of the fungus 3 days) was 41%. The “Inhibition value, I (%)” value ([2]; C 9.71 μg/mL, age of the fungus 5 days) was 36%, the “Inhibition value, I (%)” value ([2]; C 9.71 μg/mL, age of the fungus 7 days) was 32% and the “Inhibition value, I (%)” value ([2]; C 9.71 μg/mL, age of the fungus 9 days) was 20%. The “Inhibition value, I (%)” value ([2]; C 9.71 μg/mL, age of the fungus 12 days) was 16%, the “Inhibition value, I (%)” value ([2]; C 12.94 μg/mL, age of the fungus 3 days) was 59% and the “Inhibition value, I (%)” value ([2]; C 12.94 μg/mL, age of the fungus 5 days) was 55%. The “Inhibition value, I (%)” value ([2]; C 12.94 μg/mL, age of the fungus 7 days) was 53%, the “Inhibition value, I (%)” value ([2]; C 12.94 μg/mL, age of the fungus 9 days) was 48% and the “Inhibition value, I (%)” value ([2]; C 12.94 μg/mL, age of the fungus 12 days) was 30%. It also gave an EC50 [2] of 8.99 µg/mL, an MBC [3] greater than 500 µM and an MIC [3] greater than 500 µM.
In the case of `CCc1cccc2c1N(Cc1cc(C(C)(C)C)c(O)c(C(C)(C)C)c1)C(=O)/C2=N\NC(=O)C[N+](CC)(CC)CC` [Compound 3c, 2-(2-(1-(3,5-Di-tert-butyl-4-hydroxybenzyl)-7-ethyl-2-oxoindolin-3-ylidene)hydrazinyl)-N,N,N-triethyl-2-oxoethanammonium bromide], the MBC [1] is reported as 6.2 ± 0.5 µM, the MIC ([1]; Staphylococcus aureus) is reported as 3.1 ± 0.2 µM and the MBC [1, 4] is reported as 6.2 µM. The “Inhibition value, I (%)” value ([2]; C 1.26 μg/mL, age of the fungus 3 days) was 17%, the “Inhibition value, I (%)” value ([2]; C 1.26 μg/mL, age of the fungus 5 days) was 28% and the “Inhibition value, I (%)” value ([2]; C 1.26 μg/mL, age of the fungus 7 days) was 30%. The “Inhibition value, I (%)” value ([2]; C 1.26 μg/mL, age of the fungus 9 days) was 12%, the “Inhibition value, I (%)” value ([2]; C 1.26 μg/mL, age of the fungus 12 days) was 3% and the “Inhibition value, I (%)” value ([2]; C 3.15 μg/mL, age of the fungus 3 days) was 29%. For the same compound, the “Inhibition value, I (%)” value ([2]; C 3.15 μg/mL, age of the fungus 5 days) was 31%, the “Inhibition value, I (%)” value ([2]; C 3.15 μg/mL, age of the fungus 7 days) was 38% and the “Inhibition value, I (%)” value ([2]; C 3.15 μg/mL, age of the fungus 9 days) was 20%. The “Inhibition value, I (%)” value ([2]; C 3.15 μg/mL, age of the fungus 12 days) was 16%, the “Inhibition value, I (%)” value ([2]; C 6.30 μg/mL, age of the fungus 3 days) was 33% and the “Inhibition value, I (%)” value ([2]; C 6.30 μg/mL, age of the fungus 5 days) was 44%. The “Inhibition value, I (%)” value ([2]; C 6.30 μg/mL, age of the fungus 7 days) was 45%, the “Inhibition value, I (%)” value ([2]; C 6.30 μg/mL, age of the fungus 9 days) was 28% and the “Inhibition value, I (%)” value ([2]; C 6.30 μg/mL, age of the fungus 12 days) was 20%. The “Inhibition value, I (%)” value ([2]; C 9.45 μg/mL, age of the fungus 3 days) was 39%, the “Inhibition value, I (%)” value ([2]; C 9.45 μg/mL, age of the fungus 5 days) was 45% and the “Inhibition value, I (%)” value ([2]; C 9.45 μg/mL, age of the fungus 7 days) was 48%. For the same compound, the “Inhibition value, I (%)” value ([2]; C 9.45 μg/mL, age of the fungus 9 days) was 41%, the “Inhibition value, I (%)” value ([2]; C 9.45 μg/mL, age of the fungus 12 days) was 36% and the “Inhibition value, I (%)” value ([2]; C 12.60 μg/mL, age of the fungus 3 days) was 50%. For the same compound, the “Inhibition value, I (%)” value ([2]; C 12.60 μg/mL, age of the fungus 5 days) was 56%, the “Inhibition value, I (%)” value ([2]; C 12.60 μg/mL, age of the fungus 7 days) was 61% and the “Inhibition value, I (%)” value ([2]; C 12.60 μg/mL, age of the fungus 9 days) was 58%. The “Inhibition value, I (%)” value ([2]; C 12.60 μg/mL, age of the fungus 12 days) was 48%, the EC50 [2] was 2.1 µg/mL and the MBC [3] was greater than 500 µM. The MIC [3] was greater than 500 µM.
